Results reported in article PMC8587871, “Novel Thiosemicarbazone Derivatives: In Vitro and In Silico Evaluation as Potential MAO-B Inhibitors” (Molecules, 2021).

What was measured:
[1] = molecular target: T1, hMAO-B (Homo sapiens, UniProt P27338); test: In vitro fluorometric MAO-B inhibition assay; type: biochemical; conditions: for inhibition at 1000 µM: 10^−3 M; for inhibition at 100 µM: 10^−4 M; for inhibition at 10 µM: 10^−5 M; for inhibition at 1 µM: 10^−6 M; for inhibition at 0.1 µM: 10^−7 M; for inhibition at 0.01 µM: 10^−8 M; for inhibition at 0.001 µM: 10^−9 M; for IC50: read-out: IC50 against MAO-B
T1 sequence (P27338 1-520): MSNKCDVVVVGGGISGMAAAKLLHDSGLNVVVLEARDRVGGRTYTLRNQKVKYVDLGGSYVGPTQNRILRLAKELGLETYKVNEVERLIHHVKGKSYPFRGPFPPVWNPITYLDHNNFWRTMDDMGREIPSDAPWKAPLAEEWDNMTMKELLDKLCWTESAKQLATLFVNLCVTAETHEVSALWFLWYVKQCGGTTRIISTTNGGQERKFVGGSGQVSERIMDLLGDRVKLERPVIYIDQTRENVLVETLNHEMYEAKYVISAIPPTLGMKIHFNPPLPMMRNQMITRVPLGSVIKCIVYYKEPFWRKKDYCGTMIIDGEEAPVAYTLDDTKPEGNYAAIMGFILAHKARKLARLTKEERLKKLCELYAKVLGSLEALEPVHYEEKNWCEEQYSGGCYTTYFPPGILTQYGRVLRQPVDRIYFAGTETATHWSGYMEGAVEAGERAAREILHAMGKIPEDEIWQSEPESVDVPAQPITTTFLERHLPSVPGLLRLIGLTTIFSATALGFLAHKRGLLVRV
Experimental: (§1) The inhibition power on MAO isoenzymes of the synthesized compounds was evaluated by using the in vitro fluorometric method declared previously by our research group.
(§2) The in vitro MAO inhibition test was performed using the available fluorometric method, and the percentages and IC50 values of obtained compounds were calculated as previously described by our research group.

[2] = molecular target: T2, hMAO-A (Homo sapiens, UniProt P21397); test: In vitro fluorometric MAO-A inhibition assay; type: biochemical; conditions: for inhibition at 1000 µM: 10^−3 M; for inhibition at 100 µM: 10^−4 M
T2 sequence (P21397 1-527): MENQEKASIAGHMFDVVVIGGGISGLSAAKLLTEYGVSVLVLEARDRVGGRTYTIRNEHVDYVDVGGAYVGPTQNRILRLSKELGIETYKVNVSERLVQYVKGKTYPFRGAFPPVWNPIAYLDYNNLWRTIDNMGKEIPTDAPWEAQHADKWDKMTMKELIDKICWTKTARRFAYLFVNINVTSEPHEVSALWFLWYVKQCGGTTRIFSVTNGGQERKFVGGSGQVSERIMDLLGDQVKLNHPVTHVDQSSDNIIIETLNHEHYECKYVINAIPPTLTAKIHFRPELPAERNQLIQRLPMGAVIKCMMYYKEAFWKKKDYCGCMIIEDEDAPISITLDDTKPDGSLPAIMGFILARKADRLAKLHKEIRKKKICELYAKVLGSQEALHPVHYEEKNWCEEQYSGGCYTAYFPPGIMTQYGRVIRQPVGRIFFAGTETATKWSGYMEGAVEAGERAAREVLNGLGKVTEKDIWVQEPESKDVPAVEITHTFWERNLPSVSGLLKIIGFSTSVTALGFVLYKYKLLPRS
Experimental: as §1, §2

[3] = molecular target: T1, hMAO-B; test: Enzyme kinetic study (Lineweaver–Burk and secondary plots) of hMAO-B inhibition; type: biochemical; conditions: substrate tyramine; for Type of hMAO-B inhibition: Lineweaver–Burk plots; for Ki: secondary plots, read-out: Ki (steady-state inhibition constant) for hMAO-B
Text: Enzyme kinetic studies help to determine the inhibitory character of the relevant compound on the enzyme as irreversible or reversible inhibition, and to evaluate the nature of the inhibition of the relevant compound. The linear Lineweaver–Burk plots are the most commonly used method for this purpose. […] Enzyme kinetic assay was applied in the same way as previously mentioned. […] The rate curves of substrates were reported in the absence and presence of these compounds. In all cases, initial velocity measurements were collected at various substrate (tyramine) concentrations ranging from 20 µM to 0.625 µM. Thus, linear Lineweaver–Burk graphs of compounds 2b and 2h were formed as in Figure 4A and Figure 5A, respectively.
According to Lineweaver–Burk plots, reversible and irreversible inhibition type constitute two general categories. Mixed-type, uncompetitive, competitive, and non-competitive inhibition types are included in the reversible inhibition.
The same materials used in the MAO inhibition assay were used in this experiment. […] All processes were evaluated in quadruplicate. The results were analyzed with Microsoft Office Excel 2013 using Lineweaver–Burk diagrams. […] of the Lineweaver–Burk plots were replotted versus the inhibitors’ concentrations, and the Ki values were determined from the x-axis intercept as -Ki.

[4] = tested on: NIH/3T3 mouse embryonic fibroblast cell line; test: MTT cytotoxicity assay; type: cell-based; conditions: for Cytotoxicity at effective concentration against MAO-B: MTT assay, NIH/3T3
Experimental: (§3) The NIH/3T3 mouse embryonic fibroblast cell line (ATCC® CRL-1658™, London, UK) was used for cytotoxicity assays. The incubation period of NIH/3T3 cells was based on the supplier’s recommendation. NIH/3T3 cells were seeded at 1 × 10^4 cells into each well of 96-well plates. MTT assay was carried out in accordance with the standards previously described.

[5] = MTT cytotoxicity assay; type: cell-based, mouse; conditions: mouse, NIH/3T3 mouse embryonic fibroblast cells; MTT assay; read-out: IC50 against NIH/3T3 cells
Experimental: as §3

| Compound | inhibition at 1000 µM [1] [%] | inhibition at 100 µM [1] [%] | inhibition at 1000 µM [2] [%] | inhibition at 100 µM [2] [%] | melting point [°C] | Type of hMAO-B inhibition [3] | Ki [3] [nM] | Cytotoxicity at effective concentration against MAO-B [4] | IC50 ([4]; Mus musculus, NIH3T3, Table 3 column 1 as headed) [µM] | IC50 [5] [nM] | inhibition at 10 µM [1] [%] | inhibition at 1 µM [1] [%] | inhibition at 0.1 µM [1] [%] | inhibition at 0.01 µM [1] [%] | inhibition at 0.001 µM [1] [%] | IC50 [1] [nM] |
| --- | --- | --- | --- | --- | --- | --- | --- | --- | --- | --- | --- | --- | --- | --- | --- | --- |
| CCNC(=S)NN=Cc1cc2ccccc2o1 [Compound 2a, 2-(Benzofuran-2-ylmethylene)-N-ethylhydrazine-1-carbothioamide] | 74.2 ± 1.41 | 46.4 ± 0.997 | 34.1 ± 0.927 | 22.3 ± 0.824 | 179.9 to 182.1 | – | – | – | – | – | – | – | – | – | – | – |
| COCCNC(=S)NN=Cc1cc2ccccc2o1 [Compound 2b, 2-(Benzofuran-2-ylmethylene)-N-(2-methoxyethyl)hydrazine-1-carbothioamide] | 91.6 ± 1.65 | – | 33 ± 0.955 | 28.4 ± 0.899 | 147.5 to 148.8 | reversible and non-competitive | 35 | non-cytotoxic | 0.042 ± 0.002 | 130000 | 81.5 ± 1.72 | 75 ± 1.63 | 66.4 ± 0.975 | 41.5 ± 0.856 | 25.8 ± 0.765 | 42 ± 2 |
| CCCCNC(=S)NN=Cc1cc2ccccc2o1 [Compound 2c, 2-(Benzofuran-2-ylmethylene)-N-butylhydrazine-1-carbothioamide] | 76.3 ± 1.62 | 43.5 ± 0.728 | 30.4 ± 0.902 | 26.7 ± 0.82 | 120.4 to 121.2 | – | – | – | – | – | – | – | – | – | – | – |
| S=C(NN=Cc1cc2ccccc2o1)NC1CCCCC1 [Compound 2d, 2-(Benzofuran-2-ylmethylene)-N-cyclohexylhydrazine-1-carbothioamide] | 82.6 ± 1.32 | 41.1 ± 0.956 | 37.5 ± 0.897 | 20.9 ± 0.834 | 191.2 to 192.9 | – | – | – | – | – | – | – | – | – | – | – |
| S=C(NN=Cc1cc2ccccc2o1)Nc1ccccc1 [Compound 2e, 2-(Benzofuran-2-ylmethylene)-N-phenylhydrazine-1-carbothioamide] | 85.5 ± 1.53 | 40.8 ± 0.827 | 36.7 ± 0.91 | 23.4 ± 0.832 | 205.2 to 206.8 | – | – | – | – | – | – | – | – | – | – | – |
| S=C(NN=Cc1cc2ccccc2o1)Nc1ccccc1Cl [Compound 2f, 2-(Benzofuran-2-ylmethylene)-N-(2-chlorophenyl)hydrazine-1-carbothioamide] | 82.4 ± 1.33 | 47.4 ± 0.93 | 31.1 ± 0.994 | 24.2 ± 0.711 | 203.6 to 204.9 | – | – | – | – | – | – | – | – | – | – | – |
| CCNC(=S)NN=Cc1cc2ccccc2s1 [Compound 2g, 2-(Benzo[b]thiophen-2-ylmethylene)-N-ethylhydrazine-1-carbothioamide] | 79 ± 1.7 | 44.8 ± 0.758 | 38.9 ± 0.854 | 28.7 ± 0.803 | 198.9 to 201 | – | – | – | – | – | – | – | – | – | – | – |
| COCCNC(=S)NN=Cc1cc2ccccc2s1 [Compound 2h, 2-(Benzo[b]thiophen-2-ylmethylene)-N-(2-methoxyethyl)hydrazine-1-carbothioamide] | 90.4 ± 1.6 | – | 36.8 ± 0.741 | 21.9 ± 0.75 | 164.9 to 166.2 | reversible and non-competitive | 46 | non-cytotoxic | – | 81300 | 80.8 ± 1.04 | 72.2 ± 1.39 | 65 ± 1.11 | 42.8 ± 0.948 | 30.9 ± 0.782 | 56 ± 2 |
| CCCCNC(=S)NN=Cc1cc2ccccc2s1 [Compound 2i, 2-(Benzo[b]thiophen-2-ylmethylene)-N-butylhydrazine-1-carbothioamide] | 84.7 ± 1.63 | 46 ± 0.931 | 35.7 ± 0.863 | 29.2 ± 0.816 | 168.9 to 170.7 | – | – | – | – | – | – | – | – | – | – | – |
| S=C(NN=Cc1cc2ccccc2s1)NC1CCCCC1 [Compound 2j, 2-(Benzo[b]thiophen-2-ylmethylene)-N-cyclohexylhydrazine-1-carbothioamide] | 82.9 ± 1.62 | 43 ± 0.965 | 33.7 ± 0.729 | 23 ± 0.863 | 213.7 to 215.1 | – | – | – | – | – | – | – | – | – | – | – |
| S=C(NN=Cc1cc2ccccc2s1)Nc1ccccc1 [Compound 2k, 2-(Benzo[b]thiophen-2-ylmethylene)-N-phenylhydrazine-1-carbothioamide] | 80.5 ± 1.48 | 46.7 ± 0.899 | 31.1 ± 0.911 | 27.9 ± 0.815 | 213.9 to 216 | – | – | – | – | – | – | – | – | – | – | – |
| S=C(NN=Cc1cc2ccccc2s1)Nc1ccccc1Cl [Compound 2l, 2-(Benzo[b]thiophen-2-ylmethylene)-N-(2-chlorophenyl)hydrazine-1-carbothioamide] | 83.6 ± 1.6 | 42.2 ± 0.763 | 36.7 ± 0.966 | 24.4 ± 0.721 | 212.6 to 214.4 | – | – | – | – | – | – | – | – | – | – | – |
